Data from patent US20150216870A1, “Combination of PI3K Inhibitor and C-Met Inhibitor” (Novartis AG, priority 2012, published 2015).

How the values were obtained:
EBC-1 = test: Cell viability (CellTiterGlo) combination dose matrix in EBC-1; type: cell-based, human; conditions: combination with c-Met inhibitor, 72 h, excluding highest concentration, 0 no inhibition, 1 = 100% inhibition/stasis, 2 = cell death
Method: (§1) Compound stocks of both compounds are individually prepared in DMSO. Compounds are serially diluted using a Tecan dispenser to cover a ˜1000× range of concentrations. […] Both single agent and combinations are tested at multiple concentrations, along with controls and one self-cross.
(§2) The cell lines used in this study are purchased from American Type Cell Collection, including human non small cell lung cancer cell lines EBC-1 (which bears c-Met amplification), NCI-H1993 (which bears c-MET amplified), NCI-H1648 (which bears c-Met amplification), NCI-H1573 (which bears c-Met amplification and KRAS mutation) and HCC2935 (EGFR mutation). All cell lines are maintained in their respective culture medium as specified by the provider.
(§3) For the assessment of combination effects, cells are seeded into 384-well plates at 500 cells/well and incubated overnight. […]
(§4) Effects of single agents as well as their combination on cell viability is assessed after 72 hours of incubation at 37° C./5% CO2 by quantification of cellular ATP levels (CellTiterGlo, Promega) using 25 μL reagent/well and n=2 replicate plates per condition. The number/viability of cells at time of compound addition is likewise assessed and used to estimate the population doubling time of a cell line.
(§5) For untreated and treated levels U and T, inhibition is calculated using the formula I=1−T/U, which ranges from 0% to 100% for complete inhibition. […]
(§6) The Loewe expectation [Loewe S., Ergebn Physiol 27: 47-187 (1928)) is calculated at each dose pair CX,Y by finding the inhibition ILoewe such that (CX/ICX)+(CY/ICY)=1, and ICX,Y are the effective concentrations at ILoewe for the fitted single agent curves, using numerical optimization [Berenbaum M C, J Theor Biol 114: 413-431 (1985)]. The “synergy score” S is calculated by averaging the difference between Idata and ILoewe across all the tested combination dose points, excluding the highest concentration point in the dose matrix, which is most likely to be dominated by drug off-target effects. […]

NCI-H1993 = test: Cell viability (CellTiterGlo) combination dose matrix in NCI-H1993; type: cell-based, human; conditions: combination with c-Met inhibitor, 72 h, excluding highest concentration
Method: as §1, §2, §3, §4, §5, §6

NCI-H1573 = test: Cell viability (CellTiterGlo) combination dose matrix in NCI-H1573; type: cell-based, human; conditions: combination with c-Met inhibitor, 72 h, excluding highest concentration
Method: as §1, §2, §3, §4, §5, §6

A172 = test: CellTiter-Glo cell viability dose matrix in A172 glioblastoma cells; type: cell-based, human; conditions: A172 (PTEN mutant, low HGF)
Method: (§7) The PI3K inhibitor COMPOUND C and the c-MET receptor tyrosine kinase inhibitor 2-fluoro-N-methyl-4-[7-quinolin-6-yl-methyl)-imidazo[1,2-b][1,2,4]triazin-2yl]benzamide are evaluated in combination in glioblastoma tumor models. COMPOUND C (10 mM) and 2-fluoro-N-methyl-4-[7-quinolin-6-yl-methyl)-imidazo[1,2-b][1,2,4]triazin-2yl]benzamide (10 mM) are dissolved in DMSO, and are stored in aliquots at −20° C.
(§8) Human Glioblastoma cell lines, U-87 MG (PTEN mutant and HGF expressing line), H4 (PTEN mutant and HGF expressing line), A172 (PTEN mutant line with low HGF expression level) and LN-229 (PTEN wildtype and HGF low) are purchased from American Type Cell Collection and are maintained in a humidified incubator at 37° C. in 5% CO2 in recommended media. All four cell lines express detected MET at the mRNA level.
(§9) The cells are passaged twice a week and the medium is changed every 2 to 3 days. […]
(§10) Cell viability is determined by measuring cellular ATP content using the CellTiter-Glo® (CTG) luminescent cell viability assay (Promega). […] An equal volume of the CTG reagents is added to each well at the end of the compound treatment and luminescence is recorded on an Envision plate reader (Perkin Elmer). Reduced and enhanced luminescent signal values (responses) are calculated relative to untreated (control) cells. […]

[1] = system: U-87 MG human glioblastoma xenograft; test: U-87 MG xenograft tumor growth inhibition and tumor growth delay; type: in vivo, nude mice; conditions: for T/C or T/T0: D13
Method: In this experiment, the U-87 MG human glioblastoma xenograft model is used to assess the anti-tumor efficacy of the PI3K inhibitor COMPOUND C and c-Met inhibitor 2-fluoro-N-methyl-4-[7-quinolin-6-yl-methyl)-imidazo[1,2-b][1,2,4]triazin-2yl]benzamide as single agents or in combination. U-87 MG tumor cells obtained from the National Cancer Institute are reported to be homozygous for likely oncogenic variants of CDKN2A, CDKN2C, CDKN2a, and PTEN; no mutations are detected in MET, PIK3CA, or 58 other genes that are frequently altered in neoplastic cells; and HGF expressing.
Mice are treated daily for 21 days with 17.7 and 35.3 mg/kg of the c-Met inhibitor and 32.7 mg/kg COMPOUND C monotherapies, and with the c-Met inhibitor/COMPOUND C dual therapy at 17.7:32.7. An c-Met inhibitor/COMPOUND C combination at the 58.8:5.4 mg/kg dose ratio was included in the study. The control mice received both vehicles, and a standard preclinical temozolomide regimen monitored tumor model performance. The oral treatments began on Day 1 (D1) in nude mice with established subcutaneous tumors. Each animal was euthanized when its tumor reached the predetermined 2000 mm3 endpoint volume, or on D60, whichever came first. The study was terminated on D51. […] Overall efficacy was determined from the times required for tumors to progress to the volume endpoint, and from D51 survival and regression rates. This report describes the methods and results of the U87MG-e326 tumor growth delay experiment.
The animals are fed ad libitum water (reverse osmosis, 1 ppm CI) and NIH 31 Modified and Irradiated Lab Diet® consisting of 18.0% crude protein, 5.0% crude fat, and 5.0% crude fiber. The mice are housed on irradiated Enrich-O'cobs™ Laboratory Animal Bedding in static microisolators on a 12-hour light cycle at 20-22° C. (68-72° F.) and 40-60% humidity.
The U-87 MG tumor line is obtained from the American Type Culture Collection and maintained by serial engraftment in nude mice. A tumor fragment (1 mm^3) is implanted subcutaneously into the right flank of each test mouse. Tumors are calipered in two dimensions to monitor growth as their mean volume approached the desired 100-150 mm^3 range. Tumor size, in mm^3, was calculated from: Tumor Volume=(width^2×length)/2, where width and length (in mm) are measurements of the tumor. Tumor weight can be estimated with the assumption that 1 mg is equivalent to 1 mm^3 of tumor volume. Fourteen days after tumor cell implantation, on D1 of the study, mice with individual tumor volumes of 63-196 mm^3 are sorted into seven groups, with group mean tumor volumes of 122-127 mm^3.
The c-Met inhibitor 2-fluoro-N-methyl-4-[7-quinolin-6-yl-methyl)-imidazo[1,2-b][1,2,4]triazin-2yl]benzamide (di-HCl salt, 84.98% free base) is stored at 4° C. and is added to deionized water at 2× the final concentration and sonicated until dissolved. An equal volume of 0.5% methylcellulose and 0.1% Tween® 80 in deionized water is added to provide a 5.884 mg/mL dosing solution in 0.25% methylcellulose and 0.05% Tween® 80 in deionized water (Vehicle 1). Portions of this solution are diluted with Vehicle 1 to provide 3.53 and 1.765 mg/mL dosing solutions.
COMPOUND C (HCl salt, 91.85% free base) is stored at −20° C. and is added to 1% Tween® 80 in deionized water and sonicated to obtain a uniform suspension at 2× the final concentration. […] The 0.544 mg/mL dosing suspension is obtained by diluting a portion of the first suspension with Vehicle 2.

NCI-H1648 = test: Cell viability (CellTiterGlo) combination dose matrix in NCI-H1648; type: cell-based, human; conditions: combination with c-Met inhibitor, 72 h, excluding highest concentration
Method: as §1, §2, §3, §4, §5, §6

U-87 MG = test: CellTiter-Glo cell viability dose matrix in U-87 MG glioblastoma cells; type: cell-based, human; conditions: U87 MG (PTEN mutant, HGF expressing)
Method: as §7, §8, §9, §10

HCC2935 = test: Cell viability (CellTiterGlo) combination dose matrix in HCC2935; type: cell-based, human; conditions: combination with c-Met inhibitor, 72 h, excluding highest concentration
Method: as §1, §2, §3, §4, §5, §6

H4 = test: CellTiter-Glo cell viability dose matrix in H4 glioblastoma cells; type: cell-based, human; conditions: H4 (PTEN mutant, HGF expressing)
Method: as §7, §8, §9, §10

LN-229 = test: CellTiter-Glo cell viability dose matrix in LN-229 glioblastoma cells; type: cell-based, human; conditions: LN229 (PTEN wildtype, HGF low)
Method: as §7, §8, §9, §10

[2] = COMPOUND C 32.7 mg/kg (30 mg/kg free base) p.o. qd x21

## Nc1cc(C(F)(F)F)c(-c2cc(N3CCOCC3)nc(N3CCOCC3)n2)cn1 [COMPOUND C, 5-(2,6-di-morpholin-4-yl-pyrimidin-4-yl)-4-trifluoromethyl-pyridin-2-ylamine]
EBC-1
  MaxGI (GImax, combination effectiveness): 1.83
NCI-H1993
  MaxGI (GImax, combination effectiveness): 1.67
NCI-H1573
  MaxGI (GImax, combination effectiveness): 1.54
A172
  anti-proliferative activity (single agent): concentration dependent anti-proliferative activity
[1]; COMPOUND C 30 mg/kg free base p.o. qd x21
  increase of median TTE: 9.3 days
[1]; [2]
  % TGD: 79%
  T/C or T/T0: 31%
[1]; COMPOUND C 32.7 mg/kg (30 mg/kg free base) p.o. qd x21, listed as CMPD. C
  T/C or T/T0: 31%
[1]; COMPOUND C 32.7 mg/kg (30 mg/kg free base) p.o. qd x21, endpoint 2000 mm3
  Median TTE: 21.0 days
[1]; COMPOUND C 32.7 mg/kg p.o. qd x21, number of animals
  Regress.: 0
NCI-H1648
  MaxGI (GImax, combination effectiveness): 1.78
U-87 MG
  anti-proliferative activity (single agent): concentration dependent anti-proliferative activity
HCC2935
  MaxGI (GImax, combination effectiveness): 1.37
H4
  anti-proliferative activity (single agent): concentration dependent anti-proliferative activity
LN-229
  anti-proliferative activity (single agent): less active
